Measured values: patent US20040110681A1, “Method to identify targeting molecules” (priority 2002, published 2004)
Where “and” joins values, the source holds several entries; their conditions need not be identical. Equal values may be shown once. Positions of bridges follow the written chain, without caps; N, C: chain ends. Non-standard residues stand in square brackets, D forms with d. Residues, ends and D or L forms follow the SMILES beside them. hArg = N=C(N)NCCCC[C@H](N)C(=O)O; Mpa = O=C(O)CCS

Tests used:
[1] = tested on: platelets adhering to the pial vasculature; test: Intravital microscopy of platelet adhesion to pial vessels, LPS-induced model of sepsis
Experimental: The effect of the A3 mimetic of blood cell adhesion to brain vasculature was assessed by intravital microscopy. Platelets or leukocytes were fluorescently labeled and then the interaction of the labeled cells with the vascular endothelium imaged and analyzed pre and post the addition of various compounds. Platelets were isolated from blood of source animals by differential centrifugation at 200 g for 10 minutes, to pellet erythrocytes and leukocytes. The supernatant, designated platelet-rich plasma contained less than 0.5% leukocytes as determined by the number of DAPI-positive nucleated cells. The platelets were pelleted by spinning at 500 g, resuspended in Tyrode's buffer and incubated for 20 min with 5-,-6-carboxyfluorescein diacetate, succinimidyl ester (CFDA, or CFSE). 1×10^8 platelets in 0.1 ml were injected slowly over 5 minutes via a carotid catheter into anesthetized mice. […] Platelet rolling and adhesion was recorded for off-line analysis onto videotape or onto hard-drive of the computer via an intensified camera (Cascade, Roper Scientific) on a Leica DM-FSA upright microscope. […] Leukocytes are fluorescence-labeled in vivo by injecting Rhodamine 6G via a carotid catheter and analyzing the movement of the labeled cells on brain endothelium.
For the platelet studies a known antagonist of platelet-platelet interactions, Integrilin™ (Cor Therapeutics) was also evaluated. […]

[2] = Pharmacokinetic analysis, plasma half-life of fusion protein and free peptide; format: in vivo; details: read-out: plasma t½
[3] = tested on: brain tissue; test: Individual peptide variants of A3 on phage, brain selectivity index vs T7-lacZ; format: in vivo, FVB or BALB/c mice; details: 2 hours circulation; for Brain Targeting Activity: 0.5-1×10^10 pfu co-injected with T7-lacZ; for Selectivity index (FVB female) / Selectivity index (BALB/C mice): brain tissue; for Selectivity index (FVB female): FVB female mice
Experimental: In this example, various individual peptide variants of A3 were tested in vivo for their ability to target brain or other tissues. […] The phage contents of each organ were determined by plaque assay in the presence of X-gal (500 μg/mL) in top agar.
Thus, selectively indices of less than 10 are considered low, those between 10 and […] are considered moderate and those over 100 are considered high.

[4] = tested on: brain; test: Co-injection of A3 and control T7-LacZ phage, plaque assay of tissues and blood; format: in vivo, BALB/c mice; details: 10^9 pfu of each phage, tail vein, 1 hour circulation
Experimental: Plaque assays were used to determine the relative amounts of phage contained in blood and brain. For the blood assays, 300 μl of blood was drawn into 300 μl of 100 mM sodium citrate before perfusion. Plasma was recovered and saved for plaque assay. The phage content was assessed by mixing aliquots of the tissue homogenate or plasma with the bacterial BLT-5615 host, then plating on agar plates.
40 μl of 40 mg/ml of X-gal in DMF was added into 3 ml of top agar in each plate.
A mixture of the two phage (10^9 pfu of each phage) was injected into the tail veins of non-anesthetized BALB/c mice. […] Another measure of selective retention is to compare target organ to blood levels of the test phage.

[5] = tested on: brain, lung, liver, kidney, blood and spleen; test: Pharmacokinetic (PK) analysis of T7-CAGALCY and T7-lacZ phage, plaque assay; format: in vivo, FVB female mice
Experimental: A3-T7 was amplified in the host strain BLT-5615 in the presence of 1 mM IPTG and purified. T7-lacZ phage were amplified by large scale plating on LB plates. The plates were incubated at 25° C. overnight, and phage were eluted with phage extraction buffer (20 mM Tris-HCl, pH 8.0, 100 mM NaCl, 6 mM MgSO4) overnight at 4° C. with gentle rocking. The extracted phage were pooled and purified. In the PK study, in paragraph A below, three mice were used per time point, co-injected with 1×10^10 pfu of each phage. Time points were 2 min, 10 min, 30 min, 1 hr, 2 hr, 4 hr, 6 hr, 12 hr, and 24 hr.
Mice were anesthetized with Avertin 2-4 minutes before the scheduled harvest time (the mice assigned to the 2 minute time-point were anesthetized prior to administration of the phage). The brain, lung, liver, kidney, blood and spleen were harvested at 2 min, 10 min, 30 min, 1 hr, 2 hr, 4 hr, 6 hr, 12 hr, and 24 hr. The phage contents in each organ were determined by plaque assay in the presence of X-gal in top agar.

[6] = tested on: brain, lung, liver, kidney, colon; test: Effect of dose on the brain-targeting properties of T7-CAGALCY (SI, SPI); format: in vivo, FVB female mice; details: for Organ Specificity Index (SPI), ratio of SI brain to colon / Organ Specificity Index (SPI), ratio of SI brain to kidney / Organ Specificity Index (SPI), ratio of SI brain to liver / Organ Specificity Index (SPI), ratio of SI brain to lung / Selectivity index (SI), brain / Selectivity index (SI), colon / Selectivity index (SI), kidney / Selectivity index (SI), liver / Selectivity index (SI), lung: 4 hours; for Organ Specificity Index (SPI), ratio of SI brain to colon / Organ Specificity Index (SPI), ratio of SI brain to kidney / Organ Specificity Index (SPI), ratio of SI brain to liver / Organ Specificity Index (SPI), ratio of SI brain to lung: mean; for Selectivity index (SI), brain / Selectivity index (SI), colon / Selectivity index (SI), kidney / Selectivity index (SI), liver / Selectivity index (SI), lung: mean ± SEM
Experimental: In the dose response study, in paragraph B below, three mice were used per dose, co-injected with 1×10^7, 1×10^8, 1×10^9, 1×10^10, 1×10^11 pfu of each phage.
For each dose, three mice were injected. Four hours after phage administration, phage were recovered from the brain, lung, liver, kidney, colon, and blood.
This was measured as A3-T7 phage yield per gram tissue from various organs normalized by the yield/g tissue of the control phage.

[7] = tested on: brain; test: kSAR: co-injection of all 20 CAGAXCY (position 5) phage variants, sequence frequency in brain; format: in vivo, BALB/c mice
Experimental: To determine the optimum amino acid for position 5, all 20 variants at this position were injected. For co-injection of all 20 variants of CAGAXCY phage, individual phage were grown up and titered. Equivalent amounts of each phage type were added to PBS and 200 μL dose of the mixture was injected into 3 BALB/c mice per group (two time points of 30 minutes and 4 hours were studied, total of 6 mice). At 30 min and 4 hrs post injection, the mice were anesthetized, perfused and blood and brain were harvested. Aliquots of both the initial phage pool used for dosing as well as brain tissue samples were plated out, and approximately 100 individual plaques from each set were amplified by PCR using the T7 Super up primer method and sequenced using a CEQ 2000XL sequencer (Beckman Coulter, Calif.).
A total of 107 individual phage from the initial mixture used for dosing were sequenced to verify the relative abundance of the individual phage within the administered dose and these were compared with the relative frequency of the different phage recovered from brain after 30 minutes or 4 hours of circulation. There was a marked and rapid shift in frequency even by 30 minutes, where there was a marked enrichment of phage expressing N at the X5 position, (from 7% in the initial pool to 49%), M (from 5% to 24%) or L (2.8% to 12%) at 30 minutes.

[8] = tested on: brain; test: CX4CY phage library, one round of in vivo panning to brain; set-up: species or system BALB/c mice; details: 4 hrs post phage injection
Experimental: A CX4CY library was prepared and tested. 1×10^10 pfu of the library phage were injected into 6 BALB/c mice (3 mice/time point). At 30 min and 4 hr post-injection, brain was harvested and processed as described above. Similar numbers of plaques were picked individually, and the insert sequence amplified by PCR and sequenced. Alignment analysis of the sequence data was performed with a version of Clustral/W.

[9] = tested on: brain; test: Head to head comparison of CAGAXCY variants (L5, N5, M5) vs control lacZ phage; format: in vivo; details: 6 hours after administration vs 2 hours
[10] = 30 minutes after injection of 20-variant mixture
[11] = 4 hours after injection of 20-variant mixture

N=C(N)NCCCC[C@@H]1NC(=O)CCSSC[C@@H](C(N)=O)NC(=O)[C@@H]2CCCN2C(=O)[C@H](Cc2c[nH]c3ccccc23)NC(=O)[C@H](CC(=O)O)NC(=O)CNC1=O [Integrilin] ([Mpa][hArg]GDWPC-NH2; disulfide 1-7)
platelet adhesion to pial vessels ([1]; 4 hours after i.p. 10 μg LPS, Integrilin at 40 mg/kg): slight antagonistic effect | DIC and adhesion of microaggregates to the brain vasculature ([1]; higher doses than 40 mg/kg): exacerbated DIC and adhesion of microaggregates to the brain vasculature

CC(C)C[C@@H]1NC(=O)[C@H](C)NC(=O)CNC(=O)[C@H](C)NC(=O)[C@@H](N)CSSC[C@@H](C(=O)N[C@@H](Cc2ccc(O)cc2)C(=O)O)NC1=O [free synthetic peptide, CAGALCY] (H-CAGALCY-OH; disulfide 1-6)
half-life [2]: 1 to 2 min

CAGAGCY
Brain Targeting Activity [3]: No | Brain Targeting Activity ([3]; listed as L5G): loss of brain targeting activity | Selectivity index (FVB female) [3]: 1.1

CAGALC
Brain Targeting Activity [3]: No | Selectivity index (FVB female) [3]: 1.5

CAGALCAY
Brain Targeting Activity [3]: brain targeting activity is lost and No | Selectivity index (FVB female) [3]: 1.4

CAGALCF
Brain Targeting Activity [3]: Yes | Selectivity index (BALB/C mice) [3]: 800 | Selectivity index (FVB female) [3]: >200

CAGALCS
Brain Targeting Activity [3]: loss of brain targeting activity and No | Selectivity index (FVB female) [3]: 3.0

CAGALCY [T7-A3]
brain to blood ratio after normalization to control phage [4]: > 100 fold | ratio of yield/g brain and yield/mL blood between T7-A3 and T7-lacZ phage ([5]; 2 hr): 250 | Selectivity index (SI), brain ([5]; 2 hr, 1×10^10 pfu): 51 | Selectivity index (SI), lung ([5]; 2 hr, 1×10^10 pfu): 16.0 | selectivity index (SI), spleen ([5]; 2 hr, 1×10^10 pfu): 1.98 | relative specificity for brain (SI brain compared to lung) ([5]; 4 hour time point): 6 fold | ratio of yield/g brain and yield/mL blood between T7-A3 and T7-lacZ phage ([5]; 4 hr): 1200 | Selectivity index (SI), brain ([5]; 4 hr, 1×10^10 pfu): 280 and 288 | Selectivity index (SI), liver ([5]; 4 hr, 1×10^10 pfu): 4.62 | Selectivity index (SI), lung ([5]; 4 hr, 1×10^10 pfu): 54.8 and 47 | selectivity index, brain ([5]; difference of half-lives in blood taken into account): over 100 | Organ Specificity Index (SPI), ratio of SI brain to colon ([6]; 1 × 10^7 pfu): 4.57 | Organ Specificity Index (SPI), ratio of SI brain to kidney ([6]; 1 × 10^7 pfu): 1.92 | Organ Specificity Index (SPI), ratio of SI brain to liver ([6]; 1 × 10^7 pfu): 2.34 | Organ Specificity Index (SPI), ratio of SI brain to lung ([6]; 1 × 10^7 pfu): 4.23 | Selectivity index (SI), brain ([6]; 1 × 10^7 pfu): 13.2 | Selectivity index (SI), colon ([6]; 1 × 10^7 pfu): 1.8 ± 1.1 | Selectivity index (SI), kidney ([6]; 1 × 10^7 pfu): 5.0 ± 3.1 | Selectivity index (SI), liver ([6]; 1 × 10^7 pfu): 6.3 ± 5.4 | Selectivity index (SI), lung ([6]; 1 × 10^7 pfu): 1.9 ± 0.8 | Organ Specificity Index (SPI), ratio of SI brain to colon ([6]; 1 × 10^8 pfu): 2.82 | Organ Specificity Index (SPI), ratio of SI brain to kidney ([6]; 1 × 10^8 pfu): 2.08 | Organ Specificity Index (SPI), ratio of SI brain to liver ([6]; 1 × 10^8 pfu): 3.27 | Organ Specificity Index (SPI), ratio of SI brain to lung ([6]; 1 × 10^8 pfu): 0.65 | Selectivity index (SI), brain ([6]; 1 × 10^8 pfu): 10.5 and 10 | Selectivity index (SI), colon ([6]; 1 × 10^8 pfu): 4.3 ± 1.8 | Selectivity index (SI), kidney ([6]; 1 × 10^8 pfu): 5.4 ± 1.3 | Selectivity index (SI), liver ([6]; 1 × 10^8 pfu): 4.2 ± 1.9 | Selectivity index (SI), lung ([6]; 1 × 10^8 pfu): 14.3 ± 6.8 | Organ Specificity Index (SPI), ratio of SI brain to colon ([6]; 1 × 10^9 pfu): 8.87 | Organ Specificity Index (SPI), ratio of SI brain to kidney ([6]; 1 × 10^9 pfu): 3.27 | Organ Specificity Index (SPI), ratio of SI brain to liver ([6]; 1 × 10^9 pfu): 26 | Organ Specificity Index (SPI), ratio of SI brain to lung ([6]; 1 × 10^9 pfu): 3.23 | Selectivity index (SI), brain ([6]; 1 × 10^9 pfu): 121 | Selectivity index (SI), colon ([6]; 1 × 10^9 pfu): 18.3 ± 6.8 | Selectivity index (SI), kidney ([6]; 1 × 10^9 pfu): 47.3 ± 18.5 | Selectivity index (SI), liver ([6]; 1 × 10^9 pfu): 8.2 ± 3.1 | Selectivity index (SI), lung ([6]; 1 × 10^9 pfu): 47.3 ± 12.5 | Organ Specificity Index (SPI), ratio of SI brain to lung ([6]; 1 × 10^10 pfu): 4.03 | Selectivity index (SI), brain ([6]; 1 × 10^10 pfu): 150 | Selectivity index (SI), colon ([6]; 1 × 10^10 pfu): 7.9 ± 1.2 | Selectivity index (SI), kidney ([6]; 1 × 10^10 pfu): 20.7 ± 6.4 | Selectivity index (SI), liver ([6]; 1 × 10^10 pfu): 8.9 ± 5.1 | Selectivity index (SI), lung ([6]; 1 × 10^10 pfu): 40.7 ± 9.2 | Organ Specificity Index (SPI), ratio of SI brain to lung ([6]; 1 × 10^11 pfu): 3.3 | Selectivity index (SI), brain ([6]; 1 × 10^11 pfu): 118 ± 47.3 | Selectivity index (SI), colon ([6]; 1 × 10^11 pfu): 5.3 ± 1.6 | Selectivity index (SI), kidney ([6]; 1 × 10^11 pfu): 10.3 ± 1.7 | Selectivity index (SI), liver ([6]; 1 × 10^11 pfu): 4.2 ± 0.4 | Selectivity index (SI), lung ([6]; 1 × 10^11 pfu): 35.3 ± 11.0 | SPI values for lung, liver, kidney or colon compared to the other organs ([6]; all doses tested): lower than 10 | Brain Targeting Activity [3]: Yes | Selectivity index (BALB/C mice) [3]: 1000 | Selectivity index (FVB female) [3]: >200 | frequency of phage variant recovered from brain [7, 10]: 12% | frequency of phage variant recovered from brain [7, 11]: 7.5% | enrichment among 83 sequences sampled from the brain [8]: no enriched phage | change of brain SI values [9]: increase further

CAGALSY
Brain Targeting Activity [3]: brain targeting capacity is lost and No | Selectivity index (FVB female) [3]: 1.9

CAGAMCY
frequency of phage variant recovered from brain [7, 10]: 24% | frequency of phage variant recovered from brain [7, 11]: 37% | enrichment among 83 sequences sampled from the brain [8]: no enriched phage | change of brain SI values [9]: increase further

CAGANCY
frequency of phage variant recovered from brain [7, 10]: 49% | frequency of phage variant recovered from brain [7, 11]: 55% | enrichment among 83 sequences sampled from the brain [8]: no enriched phage | change of brain SI values [9]: slight decrease

CAGAPCY
Brain Targeting Activity [3]: brain targeting capacity is lost and No | Selectivity index (FVB female) [3]: 7.6
